In patent publication US10463664B2, “Inhibitors of HSV nucleotidyl transferases and uses therefor” (Saint Louis University, priority 2013, dated 2019):

Legend:
[1] = test system: HSV-2; assay: Anti-HSV-2 replication assay in Vero cells, titer by plaque assay; type: cell-based, herpes simplex virus 2; conditions: for Inhibition of HSV-2 replication (in words): primary screening; for Anti-HSV-2 Log10 suppression 5 μM (screening symbol) / Anti-HSV-2 Log10 suppression 50 μM (screening symbol): visual inspection; for Anti-HSV-2 Log10 suppression 5 μM / Anti-HSV-2 Log10 suppression 50 μM: moi 0.1, 24 h, relative to DMSO
Protocol: (§1) Anti-HSV-1 and -HSV-2 Replication Assay. Compounds to be screened were diluted in PBS supplemented to contain 2% newborn calf serum and 1% glutamine, and added in 100 μL, volume to confluent cell monolayers in 24-well cluster plates. Immediately thereafter HSV-1 and HSV-2, diluted in the supplemented PBS medium, were added to the wells in 50 μl volume such that the final concentration of compound was 50 μM and 5 μM and the multiplicity of infection was 0.1. The plates were incubated at 37° C. for 1 hour and then virus-containing inoculum was removed and the wells were washed once in PBS. Compounds, diluted to 50 μM and 5 μM in DMEM supplemented to contain 2% newborn calf serum and 1% each penicillin/streptomycin, were added at 0.5 mL/well. Plates were incubated at 37° C. an additional 23 hr, and then the plates were visually inspected through a phase contrast microscope for cytopathic effect, and for toxic effect. […] The entire contents of each well were collected by scraping. Samples were frozen at −80° C., and then subsequently thawed, sonicated, and infectious virus titer was determined by standard plaque assay on Vero cell monolayers. Because the compounds were dissolved at 10 mM in 100% DMSO, equivalent dilutions of DMSO were added to additional wells as a control for effects of the diluent. Each experiment was repeated once. EC50 values were determined as above except that serial dilutions of the compound to be tested were prepared starting at 50 μM. The inhibitory values were calculated by non-linear curve-fitting in GraphPad Prism.
(§2) Monolayers were microscopically inspected 24 hours post-infection and wells in which more cells were visually healthier than the DMSO-treated controls were collected. Viral titers in the culture lysates were then determined by standard plaque assay on Vero cells. Inhibition of viral replication was categorized as <1 log10 relative to the DMSO-treated control, 1 to 3 log10 suppression, or ≥3 log10 suppression. […] Additionally, four polyoxygenated heterocycle compounds were tested (#128, 138, 139, 140).

[2] = test system: HSV-1; assay: Anti-HSV-1 replication assay in Vero cells, titer by plaque assay; type: cell-based, herpes simplex virus 1; conditions: for Inhibition of HSV-1 replication (in words): primary screening; for Anti-HSV-1 Log10 suppression 5 μM (screening symbol) / Anti-HSV-1 Log10 suppression 50 μM (screening symbol): visual inspection; for Anti-HSV-1 Log10 suppression 5 μM / Anti-HSV-1 Log10 suppression 50 μM: moi 0.1, 24 h, relative to DMSO
Protocol: as §1, §2

[3] = biological target: T1, HBV RNaseH (Hepatitis B virus genotype A2 subtype adw2, UniProt P03159); assay: Biochemical inhibition of HBV RNaseH (oligonucleotide-directed RNA cleavage assay); conditions: compounds at 60, 20 or 10 μM
T1 construct: One of the inventors recently produced active recombinant HBV RNase H; hexahistidine; made in house; host or cells: E. coli
T1 sequence (P03159 693-845): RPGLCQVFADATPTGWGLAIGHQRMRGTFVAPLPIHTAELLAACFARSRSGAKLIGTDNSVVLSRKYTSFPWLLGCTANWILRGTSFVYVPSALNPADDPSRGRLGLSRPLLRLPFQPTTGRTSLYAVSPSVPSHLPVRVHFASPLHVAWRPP
Protocol: (§3) Biochemical inhibition of HBV RNaseH and human RNaseH1 activity. […] RNaseH activity was measured using an oligonucleotide-directed RNA cleavage assay in which a DNA oligonucleotide is annealed to an internally ^32P-labeled RNA, the RNA:DNA heteroduplex is incubated with the enzyme to permit cleavage, and then the RNA cleavage products are resolved by electrophoresis and detected by autoradiography. The compounds were included in the reaction mixes at 60, 20, or 10 μM and the amount of the RNA cleavage products in the compound-containing reactions was compared to reactions in which an equivalent concentration of DMSO was added as a vehicle control. The data were quantified using ImageJ.

[4] = biological target: T2, human RNaseH1 (Homo sapiens, UniProt O60930); assay: Biochemical inhibition of human RNaseH1 (oligonucleotide-directed RNA cleavage assay); conditions: compounds at 60, 20 or 10 μM
T2 construct: hexahistidine; made in house; host or cells: E. coli
T2 sequence (O60930 1-286): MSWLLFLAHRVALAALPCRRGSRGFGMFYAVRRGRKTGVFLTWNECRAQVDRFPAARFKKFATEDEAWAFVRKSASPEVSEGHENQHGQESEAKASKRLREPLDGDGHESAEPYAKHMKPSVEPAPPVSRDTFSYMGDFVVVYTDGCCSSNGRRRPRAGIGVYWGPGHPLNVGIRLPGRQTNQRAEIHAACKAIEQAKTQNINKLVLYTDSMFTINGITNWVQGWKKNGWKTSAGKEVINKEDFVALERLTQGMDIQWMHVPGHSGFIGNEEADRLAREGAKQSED
Protocol: as §3

Anti-HBV RNaseH [3] | SMILES | Inhibition of HSV-2 replication (in words) [1] | Inhibition of HSV-1 replication (in words) [2] | Anti-HSV-2 Log10 suppression 5 μM (screening symbol) [1] | Anti-HSV-2 Log10 suppression 50 μM (screening symbol) [1] | Anti-HSV-1 Log10 suppression 5 μM (screening symbol) [2] | Anti-HSV-1 Log10 suppression 50 μM (screening symbol) [2] | also measured
 | O=C1c2ccccc2C(=O)N1O [Compound 138] | None of these compounds was particularly efficacious | None of these compounds was particularly efficacious |  |  |  |  | 
+ (inhibition at 60 μM) | Cc1cc(C)c(C#N)c(=N)o1 [Compound 5] |  |  | − | − | − | − | 
− (no inhibition at 60 μM) | O=C(O)c1cn(C2CC2)c2cc(Cl)c(F)cc2c1=O [Compound 66] |  |  | − | − | − | + | 
− (no inhibition at 60 μM) | CCn1cc(C(=O)O)c(=O)c2ccc(C)nc21 [Compound 70] |  |  | − | − | − | − | 
− (no inhibition at 60 μM) | CCOC(=O)c1sc(NC(=O)CSc2nnc(-c3ccc(Cl)cc3)o2)c(C#N)c1C [Compound 24] |  |  | − | − | − | − | 
 | O=C1CCC(=O)N1O [Compound 139] | None of these compounds was particularly efficacious | None of these compounds was particularly efficacious |  |  |  |  | 
 | Nc1ccn(C[C@@H](CO)OCP(=O)(O)O)c(=O)n1 [CID, Cidofovir, reference compound] | negligible | negligible |  |  |  |  | Anti-HSV-2 Log10 suppression 5 μM [1]: 0.38 log10; Anti-HSV-2 Log10 suppression 50 μM [1]: 1.19 log10; Anti-HSV-1 Log10 suppression 5 μM [2]: 0.77 log10; Anti-HSV-1 Log10 suppression 50 μM [2]: 2.67 log10; Anti-Human RNaseH1 [4]: − (no inhibition at 60 μM)
 | O=C1C(=O)C(c2ccc(O)c(O)c2)Oc2cc(O)cc(O)c21 (stereo not drawn) [Compound 134] | negligible inhibition | negligible inhibition |  |  |  |  | 
+++ (inhibition at 10 μM) | CN(C)c1ccc(-c2c3cc(O)c(=O)cc-3oc3cc(O)c(O)cc23)cc1 [Compound 35] |  |  | − | − | − | − | Anti-Human RNaseH1 [4]: +++ (inhibition at 10 μM)
− (no inhibition at 60 μM) | O=C1c2cccc3cccc(c23)C(=O)N1O [Compound 45] |  |  | − | − | − | − | Anti-Human RNaseH1 [4]: − (no inhibition at 60 μM)
 | Cc1sc2nc(-c3ccccc3)nc(O)c2c1C [Compound 136] | negligible inhibition | negligible inhibition |  |  |  |  | 
 | [N-]=[N+]=NCc1cccc(C(=O)CC(=O)C(=O)O)c1 [Compound 40] | negligible inhibition | negligible inhibition |  |  |  |  | 
+++ (inhibition at 10 μM) | Cc1sc2nc(-c3ccc([N+](=O)[O-])cc3)[nH]c(=O)c2c1C [Compound 38] |  |  |  |  |  |  | Anti-HSV-2 Log10 suppression 5 μM [1]: 0.11 log10; Anti-HSV-2 Log10 suppression 50 μM [1]: −0.05 log10; Anti-HSV-1 Log10 suppression 5 μM [2]: −0.07 log10; Anti-HSV-1 Log10 suppression 50 μM [2]: 0.07 log10
+ (inhibition at 60 μM) | CCOC(=O)c1sc(NC(=O)CSc2nnc(Cc3ccccc3)o2)c(C#N)c1C [Compound 6] |  |  | − | − | − | − | 
 | O=C(O)C(=O)CC(=O)c1ccccc1 [Compound 131] | negligible inhibition | negligible inhibition |  |  |  |  | 
 | O=C(Oc1cccccc1=O)c1ccc(Cl)cc1 [Compound 63] | negligible inhibition | negligible inhibition |  |  |  |  | 
 | C[C@@H]1CCO[C@H]2Cn3cc(C(=O)NCc4ccc(F)cc4F)c(=O)c(O)c3C(=O)N12 [Compound 73, Dolutegravir, reference compound] | negligible inhibition | negligible inhibition |  |  |  |  | 
 | Cn1c(N2CCCCS2(=O)=O)nc(C(=O)NCc2ccc(F)cc2)c(O)c1=O [Compound 72] | negligible inhibition | negligible inhibition |  |  |  |  | 
− (no inhibition at 60 μM) | NC(=O)c1c(N)sc2c1CCCCC2 [Compound 3] |  |  |  |  |  |  | Anti-HSV-2 Log10 suppression 5 μM [1]: 0.06 log10; Anti-HSV-2 Log10 suppression 50 μM [1]: 0.39 log10; Anti-HSV-1 Log10 suppression 5 μM [2]: 0.19 log10; Anti-HSV-1 Log10 suppression 50 μM [2]: −0.03 log10
 | CC1=C(C#N)C(=O)NC(=O)C1=Cc1ccc(-c2ccccc2)o1 [Compound 140] | None of these compounds was particularly efficacious | None of these compounds was particularly efficacious |  |  |  |  | 
 | O=C1C(=O)C(c2cc(O)c(O)c(O)c2)Oc2cc(O)ccc21 (stereo not drawn) [Compound 135] | negligible inhibition | negligible inhibition |  |  |  |  | 
+ (inhibition at 60 μM) | COC(=O)Oc1nsnc1N1CCOCC1 [Compound 4] |  |  | − | − | − | − | 
− (no inhibition at 60 μM) | N#Cc1cc2ccccc2oc1=N [Compound 21] |  |  | − | − | − | − | 
 | Cn1c(C(C)(C)NC(=O)c2ccccc2)nc(C(=O)NCc2ccc(F)cc2)c(O)c1=O [Compound 121] | negligible inhibition | negligible inhibition |  |  |  |  | 
− (no inhibition at 60 μM) | Cc1cc(C(F)(F)F)c(C#N)c(=O)[nH]1 [Compound 19] |  |  | − | − | − | − | 
 | O=C1c2ccc3ccccc3c2C(=O)N1[O-].[Na+] [Compound 128] | None of these compounds was particularly efficacious | None of these compounds was particularly efficacious |  |  |  |  | 
 | NC(=O)c1c(N)sc2c1CCCCC2 [Compound 22] |  |  | − | − | − | − | 

SMILES | Anti-HBV RNaseH [3] | Inhibition of HSV-2 replication (in words) [1] | Inhibition of HSV-1 replication (in words) [2] | Anti-HSV-2 Log10 suppression 5 μM (screening symbol) [1] | Anti-HSV-2 Log10 suppression 50 μM (screening symbol) [1] | Anti-HSV-1 Log10 suppression 5 μM (screening symbol) [2] | Anti-HSV-1 Log10 suppression 50 μM (screening symbol) [2] | also measured
Cc1nnc(C(=O)NC(C)(C)c2nc(C(=O)NCc3ccc(F)cc3)c(O)c(=O)n2C)o1 [Compound 11, Raltegravir, reference compound] | − (no inhibition at 60 μM) |  |  |  |  |  |  | Anti-HSV-2 Log10 suppression 5 μM [1]: 0.25 log10; Anti-HSV-2 Log10 suppression 50 μM [1]: 0.35 log10; Anti-HSV-1 Log10 suppression 5 μM [2]: 0.2 log10; Anti-HSV-1 Log10 suppression 50 μM [2]: 0.37 log10; Anti-Human RNaseH1 [4]: − (no inhibition at 60 μM)
